Experiments:
[1] = system: type 2 (HSV-2) herpes simplex viruses; details: background statement; cited from earlier work
[2] = system: type 1 (HSV-1) herpes simplex viruses; details: background statement; cited from earlier work
[3] = system: herpex simplex virus type 1 (ATCC VR-733); assay: plaque reduction test in Vero cells; type: cell-based; details: mean of three samples, 72 hours, untreated control 134 plaques
Experimental: The mutual synergistic activity of acyclovir and BVDU was evaluated on the herpex simplex virus type 1 (ATCC VR-733), grown in Vero cells (ATCC CCL 81) in MEM T-199 containing 2% calf serum.
The method used was the plaque reduction test /P. Collins et al. (1977) Annals, of the New York Academy of Sciences 284, pp. 49-59/. For this purpose, confluent monolayers of Vero cells, seeded in multi-well plates (diameter 3.5 cm) at a concentration of […] cells/plate, were infected with 150 plaque-forming units (PFU) of HSV-1 per plate.
After an adsorption period of one hour at room temperature and removal of the unadsorbed virus, the monolayers were washed with buffered saline solution and then incubated at 35°C, in 5% CO2, in MEM T-199 containing 2% calf serum and 0.75% carboxymethylcellulose, both in the absence and in the presence of the inhibitors.
72 hours later, the infected monolayers were washed three times with saline solution and dyed with a 0.1% methylene blu solution in order to be able to count the number of lysis plaques resulting from the multiplication of the virus.
The number represent the mean value of three samples, and correspond to the number of plaques obtained in the absence or in the presence of acyclovir and BVDU, used either individually or in association.
The above values were then expressed as percentage of the number of plaques obtained in untreated control cultures and plotted, in the ordinate axis, against the logarithm of the concentration used (in abscissa).
This enabled to determine the concentration of the two drugs (alone or in combination) which were necessary for reducing the number of viral plaques by 100% (ID100) […]

[4] = system: HSV-1; assay: appearance of resistant HSV-1 mutants following treatment; type: cell-based; details: for Resistant mutants/10^4 viruses: plaques counted 72 hours later; for HSV-1 mutants resistant, pre-existing within the virus population: approximate restatement of Table 2 (drugs used individually)
Experimental: Finally, tests were carried out which aimed at quantifying the appearance of resistant HSV-1 mutants following treatment with acyclovir and BVDU, used individually or in association. For these tests the two compounds were used in concentrations which were 3.3 times (acyclovir) and 1.4 times (BVDU) the ID 100 value, so as to be able to completerly prevent the multiplication of sensitive viruses. For this 5 purpose, […] Vero cells, infected with HSV-1 at a multiplicity of 0.3 PFU/cell, were seeded on a preformed monolayer of uninfected Vero cells and left to adhere for 4 hours at 35°C in T-199 with 2% serum, in the presence of the inhibitors.
The liquid culture medium was then removed and replaced with new medium containing the inhibitors and 0.75% carboxymethylcellulose.
The number of plaques developed following multiplication of resistant viruses was determined 72 hours later.

SMILES	inhibition of the multiplication of HSV-2 [1]	inhibition of the multiplication of HSV-1 [2]	number of plaques ([3]; Acyclovir 0.075 µM alone)	number of plaques ([3]; Acyclovir 0.15 µM alone)	number of plaques ([3]; Acyclovir 0.3 µM alone)	number of plaques ([3]; Acyclovir 0.6 µM alone)	number of plaques ([3]; Acyclovir 1.2 µM alone)	Resistant mutants/10^4 viruses ([4]; Acyclovir 2.5 μM alone)	HSV-1 mutants resistant, pre-existing within the virus population [4]	number of plaques ([3]; BVDU 0.01 µM alone)	number of plaques ([3]; BVDU 0.02 µM alone)	number of plaques ([3]; BVDU 0.04 µM alone)	number of plaques ([3]; BVDU 0.8 µM alone)	Resistant mutants/10^4 viruses ([4]; BVDU 1.0 μM alone)
Nc1nc2c(ncn2COCCO)c(=O)[nH]1 [Acyclovir, 9-(2-hydroxyethoxymethyl) guanine]	inhibits to an equal extent	inhibits to an equal extent	111	99	52	8	0	28.6 /10^4 viruses	~3 per 1000 sensitive viruses					
O=c1[nH]c(=O)n([C@H]2C[C@H](O)[C@@H](CO)O2)cc1/C=C/Br [BVDU, E-5-(2-bromovinyl)-2'-deoxyuridine]	not against HSV-2	effective against HSV-1							~1 per 1000 sensitive viruses	141	131	109	81	13.8 /10^4 viruses
